Structures can show the parent of a compound that is named as a salt.
Tests used:
c-erbB-2 = target: T1, c-erbB-2 (Homo sapiens, UniProt P04626); assay: Substrate phosphorylation assay, erbB2, assay (b) (SPA, 33P-ATP); type: biochemical; conditions: Tables 1A and 1B
T1 construct: baculovirus expressed, recombinant constructs of the intracellular domains of c-erbB-2 and c-erbB-4; made in house
Source text: (§1) The substrate phosphorylation assays use baculovirus expressed, recombinant constructs of the intracellular domains of c-erbB-2 and c-erbB-4 that are constitutively active and EGFr isolated from solubilised A431 cell membranes. The method measures the ability of the isolated enzymes to catalyse the transfer of the g-phosphate from ATP onto tyrosine residues in a biotinylated synthetic peptide (Biotin-[…]. Substrate phosphorylation was detected following either of the following two procedures: a.) c-ErbB-2, c-ErbB4 or EGFr were incubated for 30 minutes, at room temperature, with 10 mM MnCl2, 10 mM ATP, 5 mM peptide, and test compound (diluted from a 5 mM stock in DMSO, final DMSO concentration is 2%) in 40 mM HEPES buffer, pH 7.4. The reaction was stopped by the addition of EDTA (final concentration 0.15 mM) and a sample was transferred to a streptavidin-coated 96-well plate. The plate was washed and the level of phosphotyrosine on the peptide was determined using a Europium-labelled antiphosphotyrosine antibody and quantified with a time-resolved fluorescence technique. b.) ErbB2 was incubated for 50 minutes at room temperature with 15 mM MnCl2, 2 mM ATP, 0.25 mCi [γ-^33P] ATP/well, 5 mM peptide substrate, and test compound (diluted from a 10 mM stock in DMSO, final DMSO concentration is 2%) in 50 mM MOPS pH 7.2. The reaction was terminated by the addition of […] of PBS containing 2.5 mg/ml streptavidin-coated SPA beads (Amersham Inc.), 50 mM ATP, 10 mM EDTA and 0.1% TX-100. The microtitre plates were sealed and SPA beads were allowed to settle for at least six hours. The SPA signal was measured using a Packard Topcount 96-well plate scintillation counter (Packard Instrument Co., Meriden, Conn.).

[1] = target: T2, EGFr isolated from solubilised A431 cell membranes (Homo sapiens, UniProt P00533); assay: Substrate phosphorylation assay, EGF-r, assay (a) (time-resolved fluorescence); type: biochemical
T2 construct: EGFr isolated from solubilised A431 cell membranes; endogenous in cells; host or cells: A431 cell membranes (solubilised)
T2 sequence (P00533 25-1210): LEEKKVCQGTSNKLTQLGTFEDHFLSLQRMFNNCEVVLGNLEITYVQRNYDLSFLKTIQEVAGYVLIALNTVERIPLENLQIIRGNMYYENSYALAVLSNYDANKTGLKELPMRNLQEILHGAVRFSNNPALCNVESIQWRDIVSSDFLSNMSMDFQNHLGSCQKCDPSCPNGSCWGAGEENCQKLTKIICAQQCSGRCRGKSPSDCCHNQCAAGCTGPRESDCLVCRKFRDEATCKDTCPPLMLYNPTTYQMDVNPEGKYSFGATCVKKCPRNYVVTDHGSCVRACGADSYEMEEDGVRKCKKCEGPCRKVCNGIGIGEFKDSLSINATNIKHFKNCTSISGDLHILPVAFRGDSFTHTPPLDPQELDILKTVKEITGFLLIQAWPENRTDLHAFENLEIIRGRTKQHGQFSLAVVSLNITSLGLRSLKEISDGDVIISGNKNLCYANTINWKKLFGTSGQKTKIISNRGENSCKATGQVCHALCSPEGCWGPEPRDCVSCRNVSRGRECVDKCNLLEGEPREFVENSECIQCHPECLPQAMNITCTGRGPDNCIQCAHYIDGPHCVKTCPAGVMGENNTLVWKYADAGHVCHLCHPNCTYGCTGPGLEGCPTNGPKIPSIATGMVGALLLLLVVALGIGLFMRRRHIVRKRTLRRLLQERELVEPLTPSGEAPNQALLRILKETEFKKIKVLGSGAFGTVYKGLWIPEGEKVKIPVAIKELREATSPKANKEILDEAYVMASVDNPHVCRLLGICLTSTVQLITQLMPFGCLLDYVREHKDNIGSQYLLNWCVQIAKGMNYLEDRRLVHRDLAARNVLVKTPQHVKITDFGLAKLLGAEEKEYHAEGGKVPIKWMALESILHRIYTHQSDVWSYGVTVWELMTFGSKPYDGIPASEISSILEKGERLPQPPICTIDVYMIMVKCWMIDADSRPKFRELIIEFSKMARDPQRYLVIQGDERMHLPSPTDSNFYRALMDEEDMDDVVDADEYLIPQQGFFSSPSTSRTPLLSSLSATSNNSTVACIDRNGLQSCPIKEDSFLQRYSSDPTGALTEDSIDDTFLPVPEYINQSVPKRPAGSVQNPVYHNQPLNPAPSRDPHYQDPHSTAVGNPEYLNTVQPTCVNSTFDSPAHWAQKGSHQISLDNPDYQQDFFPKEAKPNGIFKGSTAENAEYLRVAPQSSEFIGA
Source text: as §1

[2] = tested on: HB4a c5.2 (HB4a transfected with human c-erbB2 cDNA); assay: Methylene blue growth inhibition assay, HB4a erbB2; type: cell-based; conditions: 72 h, HB4a c5.2, 3 days, read-out: Cell Proliferation HB4a erbB2, IC50
Protocol: (§2) Human breast (BT474), head and neck (HN5) and gastric tumor (N87) cell lines were cultured in low glucose DMEM (Life Technologies 12320–032) containing 10% fetal bovine serum (FBS) at 37° C. in a humidified 10% CO2, 90% air incubator. The SV40 transformed human mammary epithelial cell line HB4a was transfected with either human H-ras cDNA (HB4a r4.2) or the human c-erbB2 cDNA (HB4a c5.2). The HB4a clones were cultured in RPMI containing 10% FBS, insulin (5 μg/ml), hydrocortisone (5 μg/ml), supplemented with the selection agent hygromycin B (50 μg/ml). Cells were harvested using trypsin/EDTA, counted using a haemocytometer, and plated in […] of the appropriate media, at the following densities, in a 96-well tissue culture plate (Falcon 3075): BT474 10,000 cells/well, HN5 3,000 cells/well, N87 10,000 cells/well, HB4a c5.2 3,000 cells/well, HB4a r4.2 3,000 cells/well. The next day, compounds were diluted in DMEM containing […] gentamicin, at twice the final required concentration, from 10 mM stock solutions in DMSO. […] of these dilutions were added to the […] of media currently on the cell plates. Medium containing 0.6% DMSO was added to control wells. Compounds diluted in DMEM were added to all cell lines, including the HB4a r4.2 and HB4a c5.2 cell lines. The final concentration of DMSO in all wells was 0.3%. Cells were incubated at 37° C., 10% CO2 for 3 days. Medium was removed by aspiration. Cell biomass was estimated by staining cells with 100 μl per well methylene blue (Sigma M9140, 0.5% in 50:50 ethanol:water), and incubation at room temperature for at least 30 minutes. Stain was removed, and the plates rinsed under a gentle stream of water, and air-dried. To release stain from the cells 100 μl of solubilization solution was added (1% N-lauroyl sarcosine, Sodium salt, Sigma L5125, in PBS), and plates were shaken gently for about 30 minutes. Optical density at 620 nm was measured on a microplate reader. Percent inhibition of cell growth was calculated relative to vehicle treated control wells. Concentration of compound that inhibits 50% of cell growth (IC50) was interpolated using nonlinear regression (Levenberg-Marquardt) and the equation, y=Vmax*(1−(x/(K+x)))+Y2, where “K” was equal to the IC50.

[3] = tested on: HB4a r4.2 (HB4a transfected with human H-ras cDNA); assay: Methylene blue growth inhibition assay, HB4a ras; type: cell-based; conditions: 72 h, HB4a r4.2, 3 days, read-out: Cell Proliferation HB4a ras, IC50
Protocol: as §2

[4] = tested on: BT474 breast tumor cell line; assay: Methylene blue growth inhibition assay, BT474; type: cell-based; conditions: Homo sapiens, BT-474, 72 h; BT474, 3 days; read-out: Cell Proliferation BT474, IC50
Protocol: as §2

[5] = tested on: HN5 head and neck tumor cell line; assay: Methylene blue growth inhibition assay, HN5; type: cell-based; conditions: Homo sapiens, 72 h; HN5, 3 days; read-out: Cell Proliferation HN5, IC50
Protocol: as §2

[6] = tested on: N87 gastric tumor cell line; assay: Methylene blue growth inhibition assay, N87; type: cell-based; conditions: Homo sapiens, 72 h; N87, 3 days; read-out: Cell Proliferation N87, IC50
Protocol: as §2

T1 sequence (P04626 676-1255 limits assumed): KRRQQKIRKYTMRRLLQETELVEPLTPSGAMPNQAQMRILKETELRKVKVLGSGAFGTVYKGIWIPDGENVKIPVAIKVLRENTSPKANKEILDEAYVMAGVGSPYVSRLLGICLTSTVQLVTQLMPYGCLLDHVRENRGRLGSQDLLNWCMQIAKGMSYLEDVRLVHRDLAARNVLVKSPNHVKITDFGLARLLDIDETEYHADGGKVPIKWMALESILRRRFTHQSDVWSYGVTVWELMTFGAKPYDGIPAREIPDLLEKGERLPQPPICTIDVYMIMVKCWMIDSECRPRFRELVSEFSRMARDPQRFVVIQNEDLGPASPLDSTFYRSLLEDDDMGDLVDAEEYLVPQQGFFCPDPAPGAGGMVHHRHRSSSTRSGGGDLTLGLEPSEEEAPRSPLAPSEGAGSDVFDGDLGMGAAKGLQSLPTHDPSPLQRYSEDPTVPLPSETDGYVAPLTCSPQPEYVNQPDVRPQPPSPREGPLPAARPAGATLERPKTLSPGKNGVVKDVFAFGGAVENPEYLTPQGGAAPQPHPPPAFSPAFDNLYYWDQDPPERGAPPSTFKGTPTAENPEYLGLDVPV

Row | IC50 (c-erbB-2) [µM] | IC50 [1] [µM] | IC50 [4] [µM] | IC50 [5] [µM] | IC50 [6] [µM] | SMILES | IC50 [2] [µM] | IC50 [3] [µM]
1 | < 0.1 | < 0.1 | < 5 | < 5 | < 5 | CS(=O)(=O)CCNCc1ccc(-c2ccc3ncnc(Nc4ccc(OCc5ccccc5)cc4)c3c2)o1 [Example 5, (4-Benzyloxyphenyl)-(6-(5-((2-methanesulphonyl-ethylamino)-methyl)-furan-2-yl)-quinazolin-4-yl)-amine dihydrochloride] | < 5 | > 50
2 | < 0.1 | < 0.1 | < 5 | < 5 | < 5 | CS(=O)(=O)CCNCc1nc(-c2ccc3ncnc(Nc4ccc(OCc5ccccc5)cc4)c3c2)cs1 [Example 7, (4-Benzyloxy-phenyl)-(6-(2-((2-methanesulphonyl-ethylamino)-methyl)-thiazol-4-yl)-quinazolin-4-yl)-amine dihydrochloride] | < 5 | 5 to 25
3 | < 0.1 | < 0.1 | < 5 | < 5 | < 5 | CS(=O)(=O)CCNCc1ccc(-c2cc3c(Nc4ccc(OCc5cccc(F)c5)cc4)ncnc3cn2)o1 [Example 2, (4-(3-Fluorobenzyloxy)-phenyl)-(6-(5-((2-methanesulphonyl-ethylamino)methyl)-furan-2-yl)-pyrido[3,4-d]pyrimidin-4-yl)-amine dihydrochloride] | < 5 | 25 to 50
4 | < 0.1 |  | 5 to 25 | 5 to 25 | 5 to 25 | CS(=O)(=O)CCNCc1ccc(-c2cc3c(Nc4ccc(S(=O)(=O)c5ccccc5)cc4)ncnc3cc2F)o1 [Example 36, N-[4-(Phenylsulphonyl)phenyl]-7-fluoro-6-[5-({[2-(methanesulphonyl)ethyl]amino]methyl)-2-furyl]-4-quinazolinamine] | 5 to 25 | > 50
5 | 0.1 to 1 |  | < 5 | 5 to 25 | < 5 | COc1cc(Nc2ncnc3ccc(-c4csc(CNCCS(C)(=O)=O)n4)cc23)ccc1OCc1cccc(F)c1 [Example 12, N-{4-[(3-fluorobenzyl)oxy]-3-methoxyphenyl}-6-[2-({[2-(methanesulphonyl)ethyl]amino}methyl)-1,3-thiazol-4-yl]-4-quinazolinamine] | < 5 | > 50
6 | 0.1 to 1 |  | 5 to 25 | 25 to 50 | 5 to 25 | CS(=O)(=O)CCNCc1nc(-c2ccc3ncnc(Nc4ccc(OCc5cccc(Br)c5)cc4)c3c2)cs1 [Example 13, N-{4-[(3-bromobenzyl)oxy]phenyl}-6-[2-({[2-(methanesulphonyl)ethyl]amino}methyl)-1,3-thiazol-4-yl]-4-quinazolinamine] | 5 to 25 | > 50
7 | < 0.1 |  | < 5 | < 5 | < 5 | CS(=O)(=O)CCNCc1ccc(-c2cc3c(Nc4ccc5c(cnn5Cc5ccccc5)c4)ncnc3cc2F)o1 [Example 35] | < 5 | 25 to 50
8 | 0.1 to 1 |  | < 5 | < 5 | < 5 | CS(=O)(=O)CCNCc1coc(-c2cc3c(Nc4ccc(OCc5cccc(F)c5)cc4)ncnc3cn2)c1 [Example 6, (4-(3-Fluorobenzyloxy)-phenyl)-(6-(4-((2-methanesulphonyl-ethylamino)-methyl)-furan-2-yl)-pyrido[3,4-d]pyrimidin-4-yl)-amine dihydrochloride] | < 5 | 25 to 50
9 | < 0.1 |  | < 5 | < 5 | < 5 | CS(=O)(=O)CCNCc1ccc(-c2ccc3ncnc(Nc4ccc(OCc5cccc(F)c5)c(F)c4)c3c2)o1 [Example 18, N-{3-fluoro-4-[(3-fluorobenzyl)oxy]phenyl}-6-[5-({[2-(methanesulphonyl)ethyl]amino}methyl)-2-furyl]-4-quinazolinamine] | < 5 | 5 to 25
10 | < 0.1 |  | < 5 | < 5 | < 5 | CS(=O)(=O)CCNCc1ccc(-c2cc3c(Nc4ccc(OCc5ccccc5)cc4)ncnc3cc2F)o1 [Example 34, N-[4-(Benzyloxy)phenyl]-7-fluoro-6-[5-({[2-(methanesulphonyl)ethyl]amino}methyl)-2-furyl]-4-quinazolinamine] | < 5 | > 50
11 | < 0.1 |  | < 5 | < 5 | < 5 | CS(=O)(=O)CCNCc1nc(-c2ccc3ncnc(Nc4ccc(S(=O)(=O)c5ccccc5)cc4)c3c2)cs1 [Example 23, 6-[2-({[2-(methanesulphonyl)ethyl]amino}methyl)-1,3-thiazol-4-yl]-N-[4-(benzenesulphonyl)phenyl]-4-quinazolinamine] | < 5 | 25 to 50
12 | < 0.1 |  | < 5 | < 5 | < 5 | CS(=O)(=O)CCNCc1coc(-c2ccc3ncnc(Nc4ccc(OCc5ccccc5)cc4)c3c2)c1 [Example 11, N-[4-(benzyloxy)phenyl]-6-[4-({[2-(methanesulphonyl)ethyl]amino}methyl)-2-furyl]-4-quinazolinamine] | < 5 | > 50
13 | < 0.1 |  | < 5 | < 5 | < 5 | CS(=O)(=O)CCNCc1ccc(-c2ccc3ncnc(Nc4ccc(S(=O)(=O)c5ccccc5)cc4)c3c2)o1 [Example 22, 6-[5-({[2-(methanesulphonyl)ethyl]amino}methyl)-2-furyl]-N-[4-(benzenesulphonyl)phenyl]-4-quinazolinamine] | < 5 | 25 to 50
14 | < 0.1 |  | < 5 | < 5 | < 5 | CS(=O)(=O)CCNCc1nc(-c2ccc3ncnc(Nc4ccc5c(cnn5Cc5ccccc5)c4)c3c2)cs1 [Example 26, N-(1-benzyl-1H-indazol-5-yl)-6-[2-({[2-(methanesulphonyl)ethyl]amino}methyl)-1,3-thiazol-4-yl]-4-quinazolinamine] | < 5 | 5 to 25
15 | < 0.1 |  | < 5 | < 5 | < 5 | COc1cc2ncnc(Nc3ccc(OCc4ccccc4)cc3)c2cc1-c1ccc(CNCCS(C)(=O)=O)o1 [Example 10] | < 5 | 5 to 25
